# Experimental data published in patent publication US8895608B2, “Sulfonamide anti-viral compounds” (Kineta, Inc., priority 2010, dated 2014).
# Entries after “also recorded” stand apart in the source; their conditions may differ.
# Assays:
# Huh7 cells = assay: MTS assay to determine cytotoxicity; format: cell-based, human; settings: 24 hours, up to 50 μM
# Procedure: MTS assay to determine cytotoxicity. Cultured human Huh7 cells are treated with increasing amounts of KIN600 or equivalent amounts of DMSO diluted in media for 24 hours to see their effect on cell viability.
# Cell Titer One (Promega) is the one step reagent used according to manufacturer's protocol, and cells are incubated for three hours in the presence of reagent before O.D. reading is done. Compounds were diluted to final concentrations of 0, 5, 10, 20, and 50 μM in media containing 0.5% DMSO. Negative control wells contain no compound and positive control for cytotoxicity is examined using an EMCV infection which causes 100% cytopathic effect. Each compound concentration and control is done in triplicate wells to generate error bars.
# Final KIN600 concentrations of 50 μM, 20 μM, 10 μM, and 5 μM were made in 0.5% DMSO containing media and were added to Huh7 cells to examine cytotoxicity in a MTS assay. Cells were treated for 24 hours with varying concentrations of compound and were analyzed for cell viability compared to negative control samples that were not treated with compound but grown in DMSO containing media. The cellular metabolism (O.D.) was in the range of 1.75 to below 2.0 at compound concentrations of 50 μM, 20 μM, 10 μM, 5 μM, and 0.
# [1] = tested on: Murine Encephalomyocarditis virus (EMCV); assay: EMCV antiviral assay (cell viability by MTS after infection); settings: Huh7 cells, 250 pfu EMCV, 18 hours
# HCV2a virus = assay: HCV IF antiviral assay; format: cell-based, Hepatitis C virus
compound,measurement,setting,value
COC(=O)c1sccc1S(=O)(=O)Nc1ccc2c(c1)OCO2 [KIN600],cytotoxicity (result in words),Huh7 cells,no significant cytotoxicity; also recorded: no significant toxicity
same,Cell viability post-infection,[1]; 5 μL,~0.7
same,Cell viability post-infection,[1]; 10 μL,~1.4
same,HCV infected foci (number of FFU/well),"HCV2a virus; Huh7 cells pre-treated 24 hours at 10 μM, HCV2a MOI 0.1-0.5",12±4 FFU/well
same,antiviral activity against HCV (result in words),"HCV2a virus; Huh7 cells, HCV2a",showed antiviral activity; also recorded: has antiviral properties
